Results as given in US11180474B2 (BRISTOL-MYERS SQUIBB COMPANY, priority 2016, dated 2021).

Assays:
TLR9 = test: In vivo mouse TLR9 PD model (CpG-ODN challenge, plasma IL-6); conditions: oral
Experimental: In Vivo Mouse TLR7 and TLR9 PD Model:
Adult male C57BL/6 mice were used for the experiments. Mice (7 to 10 per group) were randomized into different treatment groups based on body weight. Mice from the respective treatment groups were administered orally with vehicle or test compound. Thirty min after the oral administration of vehicle or test compound, mice were challenged with intraperitoneal injection of gardiquimod for TLR7 PD model and CpG-ODN for TLR9 PD model. Ninety minutes after gardiquimod injection and 120 minutes after CpG-ODN injection, mice were bled under isoflurane anaesthesia and plasma IL-6 level was estimated by using commercially available ELISA kit (BD Biosciences). At the end of experiment, mean cytokine data was plotted and one way ANOVA with Dunnett's test was performed to calculate the significance of test compound treated group vs. vehicle control group. Percent inhibition of cytokine induction was calculated for test compound treated group vs vehicle control group.

[1] = tested on: MRL/lpr model of Systemic Lupus Erythematosus; test: MRL/lpr model of systemic lupus erythematosus (SLE); type: in vivo, mouse; conditions: MRL/lpr mice, oral once daily 8 weeks
Experimental: MRL/Lpr Model of Systemic Lupus Erythematosus (SLE) Male MRL/lpr mice of 12-14 weeks age were screened and randomized based on the titers of anti-dsDNA antibodies and urinary NGAL (Neutrophil Gelatinase Associated Lipocalin). Mice were treated orally, once daily for 8 weeks with vehicle or test compound. The effect of test compound on disease severity was assessed by measuring end points including proteinuria, urinary-NGAL, anti-dsDNA Ab titer, and lymphadenopathy. These end points were assessed before the start of treatment and after 4 and 8 weeks of treatment. At the end of experiment, all mice were euthanized by CO2 asphyxiation and kidney samples were subjected for histology. At the end of experiment, one way ANOVA with Dunnett's test was performed to calculate the significance of test compound treated group vs. vehicle control group. Percent reduction in disease severity was calculated for each parameter, for test compound treated group vs vehicle control group. A cumulative disease score and the percent reduction in cumulative disease score was calculated by considering the average inhibition in all parameters except lymphadenopathy to reflect the impact on the overall severity of disease progression.

## COc1ccc(-c2[nH]c3ccc(C4CCN(C(=O)CN(C)C)CC4)cc3c2C(C)C)cc1OC [Example 209, 1-(4-(2-(3,4-dimethoxyphenyl)-3-isopropyl-1H-indol-5-yl)piperidin-1-yl)-2-(dimethylamino)ethan-1-one]
TLR9; dose 1 mg/kg
  % inhibition of IL6: 29%
TLR9; dose 10 mg/kg
  % inhibition of IL6: 37%
TLR9; dose 30 mg/kg
  % inhibition of IL6: 37%
TLR9; dose 100 mg/kg
  % inhibition of IL6: 51%
[1]; dose 1 mg/kg
  % inhibition Anti-dsDNA antibody titer: 44%
  % inhibition Cumulative score: 42%
  % inhibition IL-10: 10%
  % inhibition IL-12p40: 13%
  % inhibition Lymphadenopathy: 35%
  % inhibition Proteinuria: 46%
  % inhibition Urinary NGAL: 36%
[1]; dose 2 mg/kg
  % inhibition Anti-dsDNA antibody titer: 57%
  % inhibition Cumulative score: 55%
  % inhibition IL-10: 22%
  % inhibition IL-12p40: 24%
  % inhibition Lymphadenopathy: 38%
  % inhibition Proteinuria: 57%
  % inhibition Urinary NGAL: 52%
[1]; dose 5 mg/kg
  % inhibition Anti-dsDNA antibody titer: 67%
  % inhibition Cumulative score: 61%
  % inhibition IL-10: 36%
  % inhibition IL-12p40: 18%
  % inhibition Lymphadenopathy: 50%
  % inhibition Proteinuria: 61%
  % inhibition Urinary NGAL: 54%
[1]; dose 7.5 mg/kg
  % inhibition Anti-dsDNA antibody titer: 70%
  % inhibition Cumulative score: 67%
  % inhibition IL-10: 36%
  % inhibition IL-12p40: 27%
  % inhibition Lymphadenopathy: 58%
  % inhibition Proteinuria: 68%
  % inhibition Urinary NGAL: 62%
